Source: US7022737B2, “Manipulating nitrosative stress to kill pathologic microbes, pathologic helminths and pathologically proliferating cells or to upregulate nitrosative stress defenses” (Duke University, priority 1996, dated 2006)
Where a name gives a salt, the structure may show the parent alone.

Legend:
[1] = test system: Mycobacterium tuberculosis; settings: in vivo
[2] = test system: restenosis; experiment: Patients with coronary stenosis treated to prevent restenosis; format: in vivo
From the text: BSO therapy is continued for one week.
A person with blue eyes and gray hair presents with chest pain. […] The patient undergoes balloon angioplasty and placement of a Palmaz-Schatz stent, which is P^32-implanted and coated with a cyclodextran polymer to which BSO is attached by an ester linkage.
A patient similar to the one described above undergoes balloon angioplasty and placement of a Palmaz-Schatz stent which is coated with cyclodextran polymer to which ethyl maleate is attached by an ester linkage. […]
A person with restenosis six months post angioplasty has a Palmaz-Schatz stent placed. The stent is coated with a porous polymer containing 10% of the siderophore ferrioxamine B and 0.1% each of interleukin-1 and interferon-gamma. The latter agents induce the local expression of the inducible isoform of nitric oxide synthase. […]

[3] = test system: E. coli; experiment: Patients with E. coli septicemia; format: in vivo
Description: A person with fever, mild hypotension, and moderate hematuria has blood and urine cultures that are positive for E. coli. They are given a diagnosis of E. coli septicemia and urinary tract infection. […]
A person with E. coli sepsis presents feeling nauseated and gravely ill. However, their blood pressure is stable. They receive a standard regimen of IV antibiotics, including ampicillin and gentamicin as well as the siderophore ferrioxamine B at a dose of 10 mg/kg.
A person with E. coli sepsis presents with a blood pressure of 80/50 mm Hg. Broad spectrum antibiotics are initiated including ampicillin and gentamicin. […] The patient then receives an intravenous dose of nitrosated chloramphenicol, 12.5 mg four times/day IV together with methylene blue IV at a dose of 5 mg/kg as well as fluid support.

[4] = molecular target: T1, gamma-glutamylcysteinyl synthetase (gamma-GCS) (Rattus norvegicus, UniProt P19468); settings: mammalian systems, literature; cited from earlier work
T1 sequence (P19468 1-637): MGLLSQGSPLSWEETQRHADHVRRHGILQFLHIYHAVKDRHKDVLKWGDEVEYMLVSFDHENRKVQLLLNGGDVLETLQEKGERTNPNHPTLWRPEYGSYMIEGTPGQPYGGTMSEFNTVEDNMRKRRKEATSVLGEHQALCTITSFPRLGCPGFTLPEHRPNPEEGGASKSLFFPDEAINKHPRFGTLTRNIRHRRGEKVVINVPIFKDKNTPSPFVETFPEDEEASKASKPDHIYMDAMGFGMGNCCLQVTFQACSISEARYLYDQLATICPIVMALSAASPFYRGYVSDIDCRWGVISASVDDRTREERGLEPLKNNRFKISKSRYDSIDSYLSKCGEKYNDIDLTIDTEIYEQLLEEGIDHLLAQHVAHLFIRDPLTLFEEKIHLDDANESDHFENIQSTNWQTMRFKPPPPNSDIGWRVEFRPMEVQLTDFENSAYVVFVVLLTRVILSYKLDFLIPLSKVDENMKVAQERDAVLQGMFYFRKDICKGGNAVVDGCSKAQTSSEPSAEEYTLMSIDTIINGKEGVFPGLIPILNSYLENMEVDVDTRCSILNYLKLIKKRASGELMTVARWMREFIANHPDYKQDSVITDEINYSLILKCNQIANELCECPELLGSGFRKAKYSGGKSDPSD
T1 sequence (P48508 1-274 partner): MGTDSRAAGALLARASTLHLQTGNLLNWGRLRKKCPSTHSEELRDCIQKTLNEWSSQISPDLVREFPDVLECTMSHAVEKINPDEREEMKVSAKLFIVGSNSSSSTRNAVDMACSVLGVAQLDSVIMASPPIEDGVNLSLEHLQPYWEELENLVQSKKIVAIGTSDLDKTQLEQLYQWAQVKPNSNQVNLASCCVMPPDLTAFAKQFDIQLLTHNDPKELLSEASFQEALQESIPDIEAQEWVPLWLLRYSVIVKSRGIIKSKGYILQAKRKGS

[5] = test system: glutamine synthetase; settings: mammalian systems, literature; cited from earlier work
[6] = test system: benign prostatic hypertrophy; experiment: Patients with benign prostatic hypertrophy; format: in vivo; settings: prostate-implanted polymer pellets releasing each agent at 1 μmol/hr
From the text: A person presents with a history of urinary hesitancy and multiple awakenings during the night. They are given a diagnosis of benign prostatic hypertrophy. Under stereotactic guidance, the patient's enlarged prostate gland is implanted with several porus polymer pellets designed to slowly release L-buthionine-S-sulfoximine (1 μmol/hr) and S-nitrosocysteine (1 μmol/hr). […] They then have nearly normal urine flow and usually wakes no more than once per night.
A similar patient with benign prostatic hypertrophy and very marked enlargement of their prostate is treated with NO-substituted finasteride (NO-substituted Proscar; 5 mg/day). NO-substitution is accomplished by replacement of the tert-butyl amine moiety of finasteride with S-nitroso-β-thio-tert-butyl amine.
A person with benign prostatic hypertrophy is treated with Finisteride (Proscar: 5 mg/day) and oral buthionine-S-sulfoximine at a dose of 10 mmol/kg four time/day.

[7] = test system: wild type E. coli and glutathione deficient E. coli; experiment: Bacterial growth (O.D. 600 nm) with nitrosating agent; format: cell-based
Description: In a first experiment, six runs were carried out. In three of the runs, wild type E. coli were incubated in bacterial growth medium. In the other three runs, E. coli lacking a gene essential for glutathione production (in particular, lacking a gene expressing gamma-glutamylcysteine synthetase, hereinafter glutathione deficient E. coli) were incubated in the bacterial growth medium. In one run, for each of the wild type E. coli and the glutathione deficient E. coli, no nitrosating agent was employed. In one run, for each of the wild type E. coli and the glutathione deficient E. coli, 0.5 mM S-nitrosocysteine (a nitrosating agent) was added after two hours. In one run, for each of the wild type E. coli and the glutathione deficient E. coli, 0.2 mM S-nitrosocysteine was added initially and 0.5 mM S-nitrosocysteine was added at the two hour mark. In each run, starting at the two hour mark and every 15 or 30 minutes thereafter, bacterial cell density (i.e., growth) was measured. […]
In a second experiment, six runs were carried out the same as in the first experiment. In this case, the results are shown in FIG. 2 where bacterial growth (measured as optical density (O.D.) 600 nm) is plotted on a log axis versus time (after two hours) and where “wt” and the plus and minus sign mean the same as in FIG. 1 and “gsh^−” means glutathione deficient E. coli. […]

[8] = test system: restenosis; experiment: Patients with coronary stenosis treated to prevent restenosis; format: in vivo; remark: listed apart in the source
[9] = test system: oral thrush; experiment: Patients with oral thrush; format: in vivo; settings: 5 cc of 10 mM solution
Description: An immunocompromised person who is status-post recent chemotherapy develops oral thrush.
A person with leukemia develops oral thrush and is given 2 cc of 50 mM S-nitrosoglutathione, swish and spit, three times/day.
An immunocompromised person with HIV and a low CD4 count develops oral thrush. They are given 5 cc of a solution of 10 mM nitrate.

[10] = test system: Salmonella; experiment: Patients with Salmonella septicemia or gastroenteritis; format: in vivo; settings: septicemia; sodium nitrate 200 mg/kg i.v. twice a day and ethacrynic acid 50 mg four times a day p.o.
[11] = test system: mixed flora and gram-negativerods; experiment: Diabetic patient with infected skin ulcer; format: in vivo; settings: topical cream with S-nitrosoglutathione, oxidized glutathione and dinitrophenacyl glutathione
From the text: A patient with diabetes develops a skin ulcer on the lower aspect of their left leg. Cultures grow mixed flora and gram-negativerods. A topical cream is applied that contains S-nitrosoglutathione, oxidized glutathione and the glutathione S-conjugate dinitrophenacyl glutathione.

[12] = test system: Histoplasma capsulatum
[13] = stent coated with porous polymer containing 10% ferrioxamine B and 0.1% each of interleukin-1 and interferon-gamma
[14] = 32P-implanted stent, S-nitrosocysteine and ethacrynic acid 50–200 mg twice a day p.o.

CC[C@@H](CO)NCCN[C@@H](CC)CO [ethambutol]
adverse effects [1]: loss of color vision and gastrointestinal intolerance

CCOC(=O)/C=C\C(=O)OCC [ethyl maleate]
clinical outcome ([2]; stent coated with cyclodextran polymer with ethyl maleate attached by ester linkage): clinical restenosis does not occur

CC(=O)N([O-])CCCCCNC(=O)CCC(=O)N([O-])CCCCCNC(=O)CCC(=O)N([O-])CCCCCN.[Fe+3] [ferrioxamine B]
clinical outcome ([3]; 10 mg/kg with IV ampicillin and gentamicin): does not develop the clinical syndrome of hypotension and organ failure
clinical outcome [2, 13]: restenosis does not occur

N[C@@H](Cc1ccc(N(CCCl)CCCl)cc1)C(=O)O [melphalan]
clinical outcome ([2]; stent coated with ONO-substituted polymer with 10% melphalan attached): clinical restenosis does not occur
clinical outcome ([1]; po): symptoms resolve

CCC(N)(CCS(C)(=N)=O)C(=O)O (racemic) [α-ethyl-DL-methionine-SR-sulfoximine]
inhibition of gamma-GCS [4]: did not significantly inhibit
inhibition of glutamine synthetase [5]: inhibited

CS(=N)(=O)CC[C@H](N)C(=O)O (stereo partly shown) [methionine sulfoximine]
inhibition of gamma-GCS [4]: potently inhibits
inhibition of glutamine synthetase [5]: potently inhibits

interferon-gamma: cytokine inducing inducible nitric oxide synthase
clinical outcome [2, 13]: restenosis does not occur

CCC[S@](=N)(=O)CCC(N)C(=O)O (mixture of isomers) [DL-prothionine-SR-sulfoximine]
inhibition of gamma-GCS [4]: inhibited
inhibition of glutamine synthetase [5]: did not significantly inhibit

N[C@@H](CSN=O)C(=O)O [S-nitrosocysteine]
clinical outcome ([3]; 100 nmol/kg i.v. alone): partial remission in their disease accompanied by mild hypotension
clinical outcome ([3]; S-nitrosocysteine continued plus desferoximine 1 gm then 0.5 gm every 4 hr for two days): relief of hypotension and complete resolution of septicemia
clinical outcome [6]: symptoms improve over a period of three weeks
effect of pretreatment on later treatment ([7]; 0.2 mM pretreatment, 0.5 mM at two hours): Induces Resistance to Later Treatment with Nitrosating Agent
bacterial growth ([7]; 0.5 mM added at two hours, with or without 0.2 mM pretreatment): reduces rate of bacterial growth
clinical outcome [8, 14]: symptoms improve
clinical outcome ([8]; BSO-releasing polymer stent and S-nitrosocysteine 100 nmol/kg intracoronary infusion): follow-up angiogram shows no restenosis
clinical outcome ([8]; S-nitrosocysteine 100 nmol/kg six times a day for one week intracoronary, 32P-implanted stent): successfully prevents restenosis

O=[N+]([O-])O [nitrate]
clinical outcome [9]: thrush resolves

O=[N+]([O-])[O-].[Na+] [sodium nitrate]
clinical outcome [10]: symptoms resolve in two days

C=C(CC)C(=O)c1ccc(OCC(=O)O)c(Cl)c1Cl [ethacrynic acid]
clinical outcome [10]: symptoms resolve in two days
clinical outcome [8, 14]: symptoms improve

interleukin-1
clinical outcome [2, 13]: restenosis does not occur

dinitrophenacyl glutathione
clinical outcome [11]: culture of the ulcer becomes sterile over three days

CC(C[C@H](N)C(=O)O)SN=O (stereo partly drawn) [S-nitroso-gamma-methyl-L-homocysteine]
clinical outcome ([3]; septicemia and urinary tract infection, α-ethyl BSO 4 mmol/kg four times a day p.o., S-nitroso-gamma-methyl-L-homocysteine 50 μg/kg i.v., gentamicin): symptoms resolve and blood and urine cultures are negative for E. coli after two weeks

CN(C)c1ccc2nc3ccc(=[N+](C)C)cc-3sc2c1 [methylene blue]
time to restored blood pressure ([3]; nitrosated chloramphenicol 12.5 mg four times/day IV with methylene blue IV 5 mg/kg and fluid support): 24 h

C[C@@H]1[C@H](O)[C@@H](C)/C=C/C=C/C=C/C=C/C=C/C=C/C=C/[C@H](O[C@@H]2O[C@H](C)[C@@H](O)[C@H](N)[C@@H]2O)C[C@@H]2O[C@](O)(C[C@@H](O)C[C@@H](O)[C@H](O)CC[C@@H](O)C[C@@H](O)CC(=O)O[C@H]1C)C[C@H](O)[C@H]2C(=O)O [amphotericin B]
adverse effects ([12]; 1 mg/day i.v., after one week): elevated blood urea nitrogen level and other evidence of renal failure
clinical outcome ([12]; dose reduced to 0.5 mg/day): no resolution of disease
